{"source": "patent US20060229284A1", "about": "“Enhanced occlusive effect photodynamic therapy” (priority 2004, published 2006)", "key": {"skin": {"tested_on": "skin", "conditions": "systemic administration, clinical use; cited from earlier work"}, "[1]": {"tested_on": "neovasculature of the eye (advanced AMD)", "assay": "Clinical trial of PDT with Talaporfin Sodium and 664 nm laser light in 9 human subjects with advanced AMD", "assay_type": "in vivo", "from_the_text": "A clinical trial of 9 human subjects with advanced AMD was arranged. The 9 subjects were each treated with PDT using Talaporfin Sodium, and a laser light at 664 nm wavelength as the excitation light source. The Table as provided in FIG. 1 describes the results of and details of the PDT procedures performed on the 9 subjects."}, "[2]": {"tested_on": "subfoveal choroidal neovascularization (CNV)", "conditions": "cases followed for 3 months after a single PDT treatment; cited from earlier work"}, "[3]": {"tested_on": "choroidal neovascularization (CNV)", "conditions": "after re-treatment; cited from earlier work"}, "[4]": {"tested_on": "choroidal neovascularization (CNV)", "conditions": "cited from earlier work"}, "classic CNV": {"tested_on": "classic CNV", "conditions": "3 months after initial PDT treatment; cited from earlier work"}}, "data": [{"compound": "CCOC(=O)C1=Cc2c3nc(cc4nc(cc5[n-]c(cc6[n-]c2c(C)c6CC)c(C)c5CC)C(C)=C4CC)[C@@H](C)[C@]13CC.[Cl-].[Cl-].[Sn]", "note": "(racemic) [Purlytin]", "values": [{"measurement": "duration of skin photosensitivity", "setting": "skin", "value": "several weeks"}]}, {"compound": "Oc1cccc(-c2c3nc(c(-c4cccc(O)c4)c4ccc([nH]4)c(-c4cccc(O)c4)c4nc(c(-c5cccc(O)c5)c5ccc2[nH]5)CC4)C=C3)c1", "note": "[Foscan]", "values": [{"measurement": "duration of skin photosensitivity", "setting": "skin", "value": "several weeks"}]}, {"compound": "C=Cc1c(C)c2cc3nc(c(CC(=O)N[C@@H](CC(=O)O)C(=O)O)c4[nH]c(cc5nc(cc1[nH]2)C(C)=C5CC)c(C)c4C(=O)O)[C@@H](CCC(=O)O)[C@@H]3C", "note": "[Talaporfin Sodium, mono-L-aspartyl-chlorin e6]", "values": [{"measurement": "extended period of enhanced neovasculature occlusive effect", "setting": "[1]; most patients of 9 subjects, laser light 664 nm", "value": "≥ 15", "unit": "weeks"}, {"measurement": "retina and leakage after treatment", "setting": "[1]; subjects 1 and 3, who had leakage causing serious elevation of the retina", "value": "the retina appeared more flat and leakage had apparently ceased"}, {"measurement": "re-opening of treated vessels during subsequent observations", "setting": "[1]; subjects studied, FIG. 1", "value": "no indication of re-opening of vessels"}]}, {"compound": "sodium porfimer [Photophrine]", "values": [{"measurement": "duration of skin photosensitivity", "setting": "skin", "value": "up to 6 weeks"}]}, {"compound": "verteporfin", "values": [{"measurement": "cases with progression of classic CNV beyond the area of CNV identified before treatment", "setting": "[2]", "value": 51, "unit": "%"}, {"measurement": "leakage activity compared to baseline leakage", "setting": "[3]", "value": "appeared to be reduced"}, {"measurement": "subject eyes that maintained CNV closure", "setting": "[4]; after 1 week", "value": 83, "unit": "%"}, {"measurement": "eyes showing closure", "setting": "[4]; after 5 weeks", "value": 9, "unit": "%"}, {"measurement": "eyes showing leakage had recommenced", "setting": "[4]; after 5 weeks, excluding one eye removed from test data", "value": 91, "unit": "%"}, {"measurement": "eyes scheduled for retreatment", "setting": "classic CNV", "value": 90.8, "unit": "%"}, {"measurement": "eyes with classic CNV present that displayed leakage from classic CNV again", "setting": "classic CNV", "value": 92.8, "unit": "%"}]}]}
